In ChEMBL document CHEMBL1133970, “Novel 3-dodecanoylindole-2-carboxylic acid inhibitors of cytosolic phospholipase A(2)” (Bioorg Med Chem Lett, 2001):
pIC50: −log10 of the molar value.

Species on record: Homo sapiens
Assay: Cytosolic phospholipase A2 (c-PLA2) inhibitory potency of the compound was evaluated by measuring the calcium ionophore A-23,187-induced arachidonic acid release from human platelets
Assay type: functional

Structure (SMILES)	pIC50
CCCCCCCCCCCC(=O)c1c(C(=O)O)n(CCOc2ccc(C(=O)O)cc2)c2ccccc12	6.07
CCCCCCCCCCCC(=O)c1c(C(=O)O)n(CCOc2ccc(CC(=O)O)cc2)c2ccccc12	5.59
CCCCCCCCCCCC(=O)c1c(C(=O)O)n(CCSc2ccc(C(=O)O)cc2)c2ccccc12	5.60
CCCCCCCCCCCC(=O)c1c(C(=O)O)n(CCCCCCCC(=O)O)c2ccccc12	5.60
